Experimental data reported in publication PMC10507085, “Pharmacological inhibition of TBK1/IKKε blunts immunopathology in a murine model of SARS-CoV-2 infection” (Nature Communications, 2023).

Legend:
Experiment in all cases: biochemical
Parameters in all cases: KINOMEscan competition binding, DNA-tagged kinase against immobilised ligand, qPCR read-out
Settings in all cases: read-out: Percent Control
MAPK4 = MAPK4 (Homo sapiens, UniProt P31152)
Procedure: (§1) The KINOMEscan^TM kinase assays[65] were performed by Eurofins DiscoverX Corporation. For each kinase, the assay relies on the ability of the tested compound to compete against an immobilised ligand for binding to the DNA-tagged kinase. RT-qPCR is then used to measure the quantity of kinase molecules bound to the immobilised ligand, which is decreased if the tested compound competed with the kinase-ligand interaction. An 11-point 3-fold serial dilution of IDX compound was prepared in 100% DMSO at 100× final test concentration and subsequently diluted to 1× in the assay. […]

MYO3B = MYO3B (Homo sapiens, UniProt Q8WXR4)
Procedure: as §1

NEK1 = NEK1 (Homo sapiens, UniProt Q96PY6)
Procedure: as §1

ZAP70 = ZAP70 (Homo sapiens, UniProt P43403)
Procedure: as §1

TBK1 = TBK1 (Homo sapiens, UniProt Q9UHD2)
Procedure: as §1

NTRK1 = NTRK1 (Homo sapiens, UniProt P04629)
Chain of NTRK1 (P04629 whole entry): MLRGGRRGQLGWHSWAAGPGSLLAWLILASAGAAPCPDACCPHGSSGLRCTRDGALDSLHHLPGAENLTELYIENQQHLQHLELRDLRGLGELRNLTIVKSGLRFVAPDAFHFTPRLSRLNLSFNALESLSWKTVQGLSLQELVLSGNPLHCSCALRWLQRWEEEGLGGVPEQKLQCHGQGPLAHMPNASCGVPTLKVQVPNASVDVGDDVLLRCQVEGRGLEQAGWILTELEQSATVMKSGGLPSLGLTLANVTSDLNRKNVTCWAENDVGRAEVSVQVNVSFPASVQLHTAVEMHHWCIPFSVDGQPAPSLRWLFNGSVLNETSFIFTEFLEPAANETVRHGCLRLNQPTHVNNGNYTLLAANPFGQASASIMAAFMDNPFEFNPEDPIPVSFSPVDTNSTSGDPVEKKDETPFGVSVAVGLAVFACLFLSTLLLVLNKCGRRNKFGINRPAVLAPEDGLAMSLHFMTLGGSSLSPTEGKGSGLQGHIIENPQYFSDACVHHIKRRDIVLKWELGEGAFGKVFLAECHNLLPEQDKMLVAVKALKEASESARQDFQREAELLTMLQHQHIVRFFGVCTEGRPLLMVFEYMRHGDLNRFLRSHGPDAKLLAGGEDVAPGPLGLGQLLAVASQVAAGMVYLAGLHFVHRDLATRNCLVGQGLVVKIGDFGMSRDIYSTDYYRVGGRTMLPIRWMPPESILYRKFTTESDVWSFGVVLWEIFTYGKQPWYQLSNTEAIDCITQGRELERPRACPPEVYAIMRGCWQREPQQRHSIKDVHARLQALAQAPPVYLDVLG
Procedure: as §1

PDGFRB = PDGFRB (Homo sapiens, UniProt P09619)
Chain of PDGFRB (P09619 whole entry): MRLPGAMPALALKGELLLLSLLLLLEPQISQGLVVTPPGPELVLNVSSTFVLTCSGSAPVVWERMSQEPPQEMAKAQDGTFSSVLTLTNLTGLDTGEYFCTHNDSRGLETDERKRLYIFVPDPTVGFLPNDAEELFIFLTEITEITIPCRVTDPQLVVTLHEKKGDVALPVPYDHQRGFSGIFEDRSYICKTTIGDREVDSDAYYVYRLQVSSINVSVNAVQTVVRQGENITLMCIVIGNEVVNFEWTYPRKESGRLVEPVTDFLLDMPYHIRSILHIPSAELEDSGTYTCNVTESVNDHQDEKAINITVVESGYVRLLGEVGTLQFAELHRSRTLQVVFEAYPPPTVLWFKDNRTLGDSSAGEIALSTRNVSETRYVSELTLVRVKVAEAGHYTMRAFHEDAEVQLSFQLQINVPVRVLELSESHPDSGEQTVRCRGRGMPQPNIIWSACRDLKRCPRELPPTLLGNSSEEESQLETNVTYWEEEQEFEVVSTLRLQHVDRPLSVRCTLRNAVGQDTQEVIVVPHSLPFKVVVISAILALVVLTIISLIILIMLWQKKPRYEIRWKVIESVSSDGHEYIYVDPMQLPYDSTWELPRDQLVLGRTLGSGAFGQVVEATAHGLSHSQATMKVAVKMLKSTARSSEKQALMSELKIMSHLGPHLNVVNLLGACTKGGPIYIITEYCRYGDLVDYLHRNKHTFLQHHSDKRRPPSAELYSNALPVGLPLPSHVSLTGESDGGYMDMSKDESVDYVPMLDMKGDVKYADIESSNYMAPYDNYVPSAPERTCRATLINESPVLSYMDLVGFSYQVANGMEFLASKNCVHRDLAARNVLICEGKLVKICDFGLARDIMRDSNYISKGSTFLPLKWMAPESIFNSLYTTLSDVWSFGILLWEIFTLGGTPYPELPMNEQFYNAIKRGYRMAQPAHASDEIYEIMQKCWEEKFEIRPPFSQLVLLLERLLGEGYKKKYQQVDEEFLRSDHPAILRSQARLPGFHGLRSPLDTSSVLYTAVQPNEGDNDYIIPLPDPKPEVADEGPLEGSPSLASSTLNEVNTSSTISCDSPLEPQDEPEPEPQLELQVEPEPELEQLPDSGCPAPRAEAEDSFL
Procedure: as §1

CDK16 = CDK16 (Homo sapiens, UniProt Q00536)
Procedure: as §1

PIK3C2B = PIK3C2B (Homo sapiens, UniProt O00750)
Procedure: as §1

CDK4-cyclinD3 = CDK4-cyclinD3 (Homo sapiens, UniProt P11802)
Procedure: as §1

MERTK = MERTK (Homo sapiens, UniProt Q12866)
Procedure: as §1

ICK = target: T1, ICK (Homo sapiens, UniProt Q9UPZ9)
T1 construct: gene CILK1
T1 sequence (Q9UPZ9 whole entry): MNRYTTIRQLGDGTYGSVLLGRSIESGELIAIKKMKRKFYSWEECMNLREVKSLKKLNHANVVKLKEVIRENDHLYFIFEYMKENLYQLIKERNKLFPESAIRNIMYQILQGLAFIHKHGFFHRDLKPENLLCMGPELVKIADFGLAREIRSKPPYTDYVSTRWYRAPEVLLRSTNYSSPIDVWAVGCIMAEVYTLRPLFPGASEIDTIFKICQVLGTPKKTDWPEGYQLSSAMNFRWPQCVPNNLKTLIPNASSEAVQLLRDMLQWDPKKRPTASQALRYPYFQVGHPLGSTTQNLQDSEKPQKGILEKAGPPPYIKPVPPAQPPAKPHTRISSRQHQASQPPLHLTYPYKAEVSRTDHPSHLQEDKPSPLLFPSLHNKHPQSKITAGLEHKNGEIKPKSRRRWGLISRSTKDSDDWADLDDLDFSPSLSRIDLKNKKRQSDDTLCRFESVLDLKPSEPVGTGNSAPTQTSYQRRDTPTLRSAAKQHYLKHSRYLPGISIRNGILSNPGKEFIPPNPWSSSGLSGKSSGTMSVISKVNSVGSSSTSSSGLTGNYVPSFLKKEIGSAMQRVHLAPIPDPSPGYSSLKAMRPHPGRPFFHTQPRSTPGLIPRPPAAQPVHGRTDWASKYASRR
Procedure: as §1

RIOK1 = RIOK1 (Homo sapiens, UniProt Q9BRS2)
Procedure: as §1

STK36 = STK36 (Homo sapiens, UniProt Q9NRP7)
Chain of STK36 (Q9NRP7 whole entry): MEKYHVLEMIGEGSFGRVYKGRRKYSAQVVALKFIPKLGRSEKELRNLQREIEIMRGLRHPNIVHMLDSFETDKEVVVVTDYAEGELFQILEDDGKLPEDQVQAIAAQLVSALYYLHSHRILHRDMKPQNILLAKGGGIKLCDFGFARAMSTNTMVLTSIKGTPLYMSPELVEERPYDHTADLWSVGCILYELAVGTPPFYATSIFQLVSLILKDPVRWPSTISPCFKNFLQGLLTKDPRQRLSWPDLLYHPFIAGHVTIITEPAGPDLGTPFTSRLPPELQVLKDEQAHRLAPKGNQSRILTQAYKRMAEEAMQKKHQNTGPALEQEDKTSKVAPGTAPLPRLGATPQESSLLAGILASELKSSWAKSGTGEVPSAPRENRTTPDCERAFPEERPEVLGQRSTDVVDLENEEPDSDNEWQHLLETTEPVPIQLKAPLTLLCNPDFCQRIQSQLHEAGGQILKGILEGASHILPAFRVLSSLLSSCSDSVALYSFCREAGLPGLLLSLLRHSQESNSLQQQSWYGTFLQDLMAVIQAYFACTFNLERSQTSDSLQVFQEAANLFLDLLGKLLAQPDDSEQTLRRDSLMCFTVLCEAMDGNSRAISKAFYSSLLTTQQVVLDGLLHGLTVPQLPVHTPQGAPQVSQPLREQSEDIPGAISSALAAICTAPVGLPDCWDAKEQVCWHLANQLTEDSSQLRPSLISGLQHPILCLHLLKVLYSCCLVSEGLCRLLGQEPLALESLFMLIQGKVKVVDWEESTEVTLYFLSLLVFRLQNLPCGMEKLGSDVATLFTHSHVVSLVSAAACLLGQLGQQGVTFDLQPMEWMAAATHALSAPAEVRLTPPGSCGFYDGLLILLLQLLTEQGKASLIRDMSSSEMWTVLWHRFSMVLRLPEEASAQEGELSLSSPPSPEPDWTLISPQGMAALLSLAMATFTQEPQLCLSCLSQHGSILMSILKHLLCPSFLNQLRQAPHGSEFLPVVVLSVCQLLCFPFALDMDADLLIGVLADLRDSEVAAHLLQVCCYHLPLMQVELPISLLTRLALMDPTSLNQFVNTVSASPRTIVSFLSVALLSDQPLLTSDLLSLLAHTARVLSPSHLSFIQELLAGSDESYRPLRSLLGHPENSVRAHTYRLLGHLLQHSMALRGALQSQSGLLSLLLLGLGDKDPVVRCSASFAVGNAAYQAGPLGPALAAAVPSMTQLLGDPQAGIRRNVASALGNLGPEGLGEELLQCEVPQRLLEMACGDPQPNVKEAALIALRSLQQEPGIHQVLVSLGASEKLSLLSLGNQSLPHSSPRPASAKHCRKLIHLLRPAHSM
Procedure: as §1

ADCK4 = target: T2, ADCK4 (Homo sapiens, UniProt Q96D53)
T2 construct: gene COQ8B
Procedure: as §1

ERBB4 = ERBB4 (Homo sapiens, UniProt Q15303)
Procedure: as §1

CSNK1D = CSNK1D (Homo sapiens, UniProt P48730)
Chain of CSNK1D (P48730 whole entry): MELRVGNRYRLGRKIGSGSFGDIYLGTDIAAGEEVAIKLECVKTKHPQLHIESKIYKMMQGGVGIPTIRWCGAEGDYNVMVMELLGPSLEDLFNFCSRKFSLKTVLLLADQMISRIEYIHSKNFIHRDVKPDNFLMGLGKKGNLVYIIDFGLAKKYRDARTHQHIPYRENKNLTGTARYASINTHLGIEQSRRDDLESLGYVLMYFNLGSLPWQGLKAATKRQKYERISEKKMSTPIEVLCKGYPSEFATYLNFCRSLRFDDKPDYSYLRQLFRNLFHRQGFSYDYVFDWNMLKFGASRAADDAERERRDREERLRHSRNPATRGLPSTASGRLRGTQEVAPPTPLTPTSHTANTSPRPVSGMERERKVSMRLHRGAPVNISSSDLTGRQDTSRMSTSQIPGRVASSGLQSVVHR
Procedure: as §1

CDC42BPG = CDC42BPG (Homo sapiens, UniProt Q6DT37)
Procedure: as §1

PLK4 = PLK4 (Homo sapiens, UniProt O00444)
Procedure: as §1

STK35 = STK35 (Homo sapiens, UniProt Q8TDR2)
Chain of STK35 (Q8TDR2 whole entry): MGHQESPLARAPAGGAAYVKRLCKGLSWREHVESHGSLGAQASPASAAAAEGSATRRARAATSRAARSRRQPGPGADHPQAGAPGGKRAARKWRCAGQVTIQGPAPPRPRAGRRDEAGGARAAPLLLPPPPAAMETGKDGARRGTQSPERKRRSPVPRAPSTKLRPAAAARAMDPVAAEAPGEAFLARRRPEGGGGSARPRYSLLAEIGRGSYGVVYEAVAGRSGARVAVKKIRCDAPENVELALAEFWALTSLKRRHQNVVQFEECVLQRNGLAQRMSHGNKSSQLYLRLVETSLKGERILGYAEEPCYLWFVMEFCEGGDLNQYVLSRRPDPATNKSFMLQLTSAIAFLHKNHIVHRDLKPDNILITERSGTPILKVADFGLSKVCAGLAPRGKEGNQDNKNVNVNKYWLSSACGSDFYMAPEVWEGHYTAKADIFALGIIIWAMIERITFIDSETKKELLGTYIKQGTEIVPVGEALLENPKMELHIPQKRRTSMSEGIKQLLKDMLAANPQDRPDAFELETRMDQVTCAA
Procedure: as §1

Question: Which remaining binding at 10 µM (MAPK4) does the source give for `Oc1ccc(C2=Cc3ccc(O)cc3OC2)cc1` [compound 1, idronoxil] here?
Answer: 100%

Question: What about the remaining binding at 10 µM (MYO3B) of the same compound?
Answer: 100%

Question: What about the remaining binding at 10 µM (NEK1) of the same compound?
Answer: 71%

Question: And the remaining binding at 10 µM (ZAP70)?
Answer: 78%

Question: And the remaining binding at 10 µM (TBK1)?
Answer: 99%

Question: And the remaining binding at 10 µM (NTRK1)?
Answer: 91%

Question: And the remaining binding at 10 µM (PDGFRB)?
Answer: 18%

Question: And the remaining binding at 10 µM (CDK16)?
Answer: 93%

Question: And the remaining binding at 10 µM (PIK3C2B)?
Answer: 83%

Question: And the remaining binding at 10 µM (CDK4-cyclinD3)?
Answer: 85%

Question: What about the remaining binding at 10 µM (MERTK) of the same compound?
Answer: 97%

Question: What about the remaining binding at 10 µM (ICK) of the same compound?
Answer: 100%

Question: What about the remaining binding at 10 µM (RIOK1) of the same compound?
Answer: 98%

Question: What about the remaining binding at 10 µM (STK36) of the same compound?
Answer: 78%

Question: What about the remaining binding at 10 µM (ADCK4) of the same compound?
Answer: 81%

Question: What about the remaining binding at 10 µM (ERBB4) of the same compound?
Answer: 91%

Question: And the remaining binding at 10 µM (CSNK1D)?
Answer: 58%

Question: What about the remaining binding at 10 µM (CDC42BPG) of the same compound?
Answer: 93%

Question: What about the remaining binding at 10 µM (PLK4) of the same compound?
Answer: 88%

Question: What about the remaining binding at 10 µM (STK35) of the same compound?
Answer: 88%
